{"source": "paper PMC12069442", "about": "(Frontiers in Pharmacology, 2025)", "note": "Entries after “also recorded” stand apart in the source; their conditions may differ. Structures can show the parent of a compound that is named as a salt.", "data": [{"system": "rat liver microsomes (RLM)", "experiment": "Inhibitor screening on ziprasidone metabolism in RLM", "type": "in vitro ADME", "conditions": "100 μM inhibitor, 0.3 mg/mL RLM, ziprasidone 10 μM, 20 min", "units": {"Relative activity (%)": "%"}, "values": [{"molecule": "COc1c(O)cc(O)c2c(=O)cc(-c3ccccc3)oc12", "note": "[Wogonin]", "Relative activity (%)": "80.85 ± 12.40"}, {"molecule": "O=c1cc(-c2ccccc2)oc2cc(O)cc(O)c12", "note": "[Chrysin]", "Relative activity (%)": "36.09 ± 19.09"}, {"molecule": "CCCCc1nc(Cl)c(CO)n1Cc1ccc(-c2ccccc2-c2nn[nH]n2)cc1", "note": "[Losartan]", "Relative activity (%)": "74.09 ± 5.29"}, {"molecule": "O=C(O)[C@H]1O[C@@H](Oc2cc3oc(-c4ccccc4)cc(=O)c3c(O)c2O)[C@H](O)[C@@H](O)[C@@H]1O", "note": "[Baicalin]", "Relative activity (%)": "87.83 ± 13.63"}, {"molecule": "O=C1CCC[C@@H]2[C@H]3CCCN4CCC[C@@H](CN12)[C@@H]34", "note": "[Matrine]", "Relative activity (%)": "98.65 ± 1.77"}, {"molecule": "Cucurbitacin B", "Relative activity (%)": "117.16 ± 18.74"}, {"molecule": "O=c1c(-c2ccc(O)cc2)coc2cc(O)ccc12", "note": "[Daidzein]", "Relative activity (%)": "121.70 ± 5.16"}, {"molecule": "CC(C)(O)CNc1nc(Nc2ccnc(C(F)(F)F)c2)nc(-c2cccc(C(F)(F)F)n2)n1", "note": "[Enasidenib]", "Relative activity (%)": "40.44 ± 1.29"}, {"molecule": "OC(CNCC(O)C1CCc2cc(F)ccc2O1)C1CCc2cc(F)ccc2O1", "note": "(stereo not drawn) [Nebivolol Hydrochloride]", "Relative activity (%)": "63.48 ± 3.34"}, {"molecule": "COc1cc2c(c(OC)c1OC)-c1c(cc(OC)c(OC)c1OC)C[C@H](C)[C@H](C)C2", "note": "[Schisandrin A]", "Relative activity (%)": "69.51 ± 11.79"}, {"molecule": "COc1cc2ncnc(Nc3ccc(F)c(Cl)c3)c2cc1OCCCN1CCOCC1", "note": "[Gefitinib]", "Relative activity (%)": "36.20 ± 0.61"}, {"molecule": "O=C(NC[C@H]1CN(c2ccc(N3CCOCC3=O)cc2)C(=O)O1)c1ccc(Cl)s1", "note": "[Rivaroxaban]", "Relative activity (%)": "102.37 ± 4.89"}, {"molecule": "C=C1C[C@@]23CC[C@H]4[C@@](C)(CCC[C@@]4(C)C(=O)O[C@@H]4O[C@H](CO)[C@@H](O)[C@H](O)[C@H]4O)[C@@H]2CC[C@]1(O[C@@H]1O[C@H](CO)[C@@H](O)[C@H](O)[C@H]1O)C3", "note": "[Rubusoside]", "Relative activity (%)": "103.75 ± 2.05"}, {"molecule": "Cc1cc(O)c2c(c1)C(=O)c1cc(O)cc(O)c1C2=O", "note": "[Emodin]", "Relative activity (%)": "25.64 ± 3.15"}, {"molecule": "COc1cc(CCC(C)=O)ccc1O", "note": "[Vanillylacetone]", "Relative activity (%)": "93.56 ± 3.00"}, {"molecule": "O=C1CCc2cc(OCCCCc3nnnn3C3CCCCC3)ccc2N1", "note": "[Cilostazol]", "Relative activity (%)": "55.05 ± 0.99"}, {"molecule": "O=c1c(O)c(-c2cc(O)c(O)c(O)c2)oc2cc(O)cc(O)c12", "note": "[Myricetin]", "Relative activity (%)": "2.64 ± 1.71"}, {"molecule": "COc1ccc(-c2coc3cc(O)ccc3c2=O)cc1O", "note": "[Calycosin]", "Relative activity (%)": "104.22 ± 12.51"}, {"molecule": "CCCN1CCCC[C@H]1C(=O)Nc1c(C)cccc1C", "note": "[Ropivacaine hydrochloride]", "Relative activity (%)": "102.42 ± 0.84"}, {"molecule": "COc1cc(C2Oc3cc([C@H]4Oc5cc(O)cc(O)c5C(=O)[C@@H]4O)ccc3OC2CO)ccc1O", "note": "(stereo partly drawn) [Silibinin]", "Relative activity (%)": "45.13 ± 1.52"}, {"molecule": "Clc1cccc(Cl)c1N=C1NCCN1", "note": "[Clonidine hydrochloride]", "Relative activity (%)": "74.70 ± 0.47"}, {"molecule": "CCN(CC)CC(=O)Nc1c(C)cccc1C", "note": "[Lidocaine]", "Relative activity (%)": "93.56 ± 10.94"}, {"molecule": "CCCCC(=O)N(Cc1ccc(-c2ccccc2-c2nnn[nH]2)cc1)[C@H](C(=O)O)C(C)C", "note": "[Valsartan]", "Relative activity (%)": "44.50 ± 62.94"}, {"molecule": "CCOc1nc2cccc(C(=O)O)c2n1Cc1ccc(-c2ccccc2-c2nnn[nH]2)cc1", "note": "[Candesartan]", "Relative activity (%)": "54.29 ± 3.95"}, {"molecule": "CCN(CC)CCNC(=O)c1ccc(N)cc1", "note": "[Procainamide hydrochloride]", "Relative activity (%)": "113.37 ± 13.44"}, {"molecule": "CCOC(=O)C1=C(COCCN)NC(C)=C(C(=O)OC)C1c1ccccc1Cl", "note": "(stereo not drawn) [Amlodipine]", "Relative activity (%)": "24.44 ± 2.51"}, {"molecule": "CC(C)[C@]12O[C@H]1[C@@H]1O[C@]13[C@]1(O[C@H]1C[C@H]1C4=C(CC[C@@]13C)C(=O)OC4)[C@@H]2O", "note": "[Triptolide]", "Relative activity (%)": "87.47 ± 5.70"}, {"molecule": "CCCSc1nc(N[C@@H]2C[C@H]2c2ccc(F)c(F)c2)c2nnn([C@@H]3C[C@H](OCCO)[C@@H](O)[C@H]3O)c2n1", "note": "[Ticagrelor]", "Relative activity (%)": "36.84 ± 20.49"}, {"molecule": "O=c1cc(-c2ccccc2)oc2cc(O)c(O)c(O)c12", "note": "[Baicalein]", "Relative activity (%)": "97.20 ± 18.86"}, {"molecule": "CCCCc1nc(Cl)c(CO)n1Cc1ccc(-c2ccccc2-c2nn[nH]n2)cc1", "note": "[Losartan potassium]", "Relative activity (%)": "35.58 ± 50.31"}, {"molecule": "COc1c(O[C@@H]2O[C@H](C(=O)O)[C@@H](O)[C@H](O)[C@H]2O)cc(O)c2c(=O)cc(-c3ccccc3)oc12", "note": "[Wogonoside]", "Relative activity (%)": "92.55 ± 1.09"}, {"molecule": "O=C(/C=C/c1ccc(O)c(O)c1)O[C@@H]1C[C@](O)(C(=O)O)C[C@@H](O)[C@H]1O", "note": "[Chlorogenic acid]", "Relative activity (%)": "91.52 ± 17.97"}, {"molecule": "CCCCN1CCCCC1C(=O)Nc1c(C)cccc1C", "note": "(stereo not drawn) [Bupivacaine hydrochloride]", "Relative activity (%)": "104.14 ± 92.28"}, {"molecule": "C=C[C@H]1C[N@@]2CC[C@H]1C[C@@H]2[C@@H](O)c1ccnc2ccc(OC)cc12", "note": "[Quinidine]", "Relative activity (%)": "83.40 ± 4.78"}, {"molecule": "CCOc1nc2cccc(C(=O)O)c2n1Cc1ccc(-c2ccccc2-c2nc(=O)o[nH]2)cc1", "note": "[Azilsartan]", "Relative activity (%)": "92.59 ± 5.86"}, {"molecule": "COc1ccc(C(C)=O)c(O)c1", "note": "[Paeonol]", "Relative activity (%)": "108.77 ± 3.51"}, {"molecule": "CCCCc1oc2ccc(NS(C)(=O)=O)cc2c1C(=O)c1ccc(OCCCN(CCCC)CCCC)cc1", "note": "[Dronedarone Hydrochloride]", "Relative activity (%)": "23.67 ± 11.05"}, {"molecule": "CC(C)(O)[C@H]1CC[C@@](C)([C@H]2[C@@H](O)C[C@@]3(C)[C@@H]4C[C@H](O[C@@H]5O[C@H](CO)[C@@H](O)[C@H](O)[C@H]5O)[C@H]5C(C)(C)[C@@H](O[C@@H]6OC[C@@H](O)[C@H](O)[C@H]6O)CC[C@@]56C[C@@]46CC[C@]23C)O1", "note": "[Astragaloside A]", "Relative activity (%)": "107.37 ± 18.93"}, {"molecule": "CCCc1nc2c(C)cc(-c3nc4ccccc4n3C)cc2n1Cc1ccc(-c2ccccc2C(=O)O)cc1", "note": "[Telmisartan]", "Relative activity (%)": "64.19 ± 12.39"}, {"molecule": "COC(=O)[C@H](c1ccccc1Cl)N1CCc2sccc2C1", "note": "[Clopidogrel hydrogen sulfate]", "Relative activity (%)": "179.48 ± 15.80"}, {"molecule": "COc1ccccc1OCCNCC(O)COc1cccc2[nH]c3ccccc3c12", "note": "(stereo not drawn) [Carvedilol]", "Relative activity (%)": "29.89 ± 3.28"}, {"molecule": "O=c1cc(-c2ccc(O)cc2)oc2cc(O)cc(O)c12", "note": "[Apigenin]", "Relative activity (%)": "31.41 ± 2.56"}, {"molecule": "COCCOC(=O)C1=C(C)NC(C)=C(C(=O)OC(C)C)C1c1cccc([N+](=O)[O-])c1", "note": "(stereo not drawn) [Nimodipine]", "Relative activity (%)": "49.68 ± 0.53"}, {"molecule": "C[C@@H]1C(=O)O[C@H](C)[C@H]1C[C@@H](O)[C@](C)(O)[C@H]1CC[C@@]2(O)C3=CC(=O)[C@@H]4C[C@@H](O)[C@@H](O)C[C@]4(C)[C@H]3CC[C@]12C", "note": "[Cyasterone]", "Relative activity (%)": "83.75 ± 6.16"}, {"molecule": "CCOC(=O)C1=C(C)NC(C)=C(C(=O)OC)C1c1cccc(Cl)c1Cl", "note": "(stereo not drawn) [Felodipine]", "Relative activity (%)": "28.36 ± 1.67"}, {"molecule": "CCCCC1=NC2(CCCC2)C(=O)N1Cc1ccc(-c2ccccc2-c2nnn[nH]2)cc1", "note": "[Irbesartan]", "Relative activity (%)": "72.41 ± 4.72"}]}, {"system": "rat liver microsomes (RLM)", "experiment": "Inhibitor screening on ziprasidone metabolism in RLM", "type": "in vitro ADME", "conditions": "100 μM inhibitor, RLM", "values": [{"molecule": "Oc1ccc(/C=C/c2cc(O)cc(O)c2)cc1", "note": "[resveratrol, Resveratrol]", "suppression of the metabolism of ziprasidone": "over 80%"}, {"molecule": "O=c1c(O)c(-c2ccc(O)c(O)c2)oc2cc(O)cc(O)c12", "note": "[quercetin, Quercetin]", "suppression of the metabolism of ziprasidone": "over 80%"}]}, {"system": "rat liver microsomes (RLM)", "experiment": "Kinetics inhibitory assay of quercetin on ziprasidone metabolism in RLM", "type": "in vitro ADME", "conditions": "RLM", "values": [{"molecule": "O=c1c(O)c(-c2ccc(O)c(O)c2)oc2cc(O)cc(O)c12", "note": "[quercetin, Quercetin]", "α": 0.96}]}, {"system": "rat liver microsomes (RLM)", "experiment": "Kinetics inhibitory assay of quercetin on ziprasidone metabolism in RLM", "type": "in vitro ADME", "conditions": "RLM 0.3 mg/mL, ziprasidone 10 μM, quercetin 0–100 μM, n=3", "units": {"IC50": "µM"}, "values": [{"molecule": "O=c1c(O)c(-c2ccc(O)c(O)c2)oc2cc(O)cc(O)c12", "note": "[quercetin, Quercetin]", "IC50": "13.8 ± 0.3"}]}, {"molecular_target": "rat liver microsomes (RLM)", "experiment": "Kinetics inhibitory assay of quercetin on ziprasidone metabolism in RLM", "type": "in vitro ADME", "conditions": "RLM, Lineweaver-Burk secondary plot", "units": {"Ki": "µM", "αKi": "µM"}, "values": [{"molecule": "O=c1c(O)c(-c2ccc(O)c(O)c2)oc2cc(O)cc(O)c12", "note": "[quercetin, Quercetin]", "Ki": 30.7, "αKi": 29.4}]}, {"system": "rat liver microsomes (RLM)", "experiment": "Kinetics inhibitory assay of quercetin on ziprasidone metabolism in RLM", "type": "in vitro ADME", "conditions": "RLM, ziprasidone 2.5–20 μM, quercetin 0, 6.5, 13, 26 μM", "values": [{"molecule": "O=c1c(O)c(-c2ccc(O)c(O)c2)oc2cc(O)cc(O)c12", "note": "[quercetin, Quercetin]", "Inhibition type": "mixed inhibitory mechanism; also recorded: mixed inhibition"}]}, {"system": "human liver microsomes (HLM) (Homo sapiens)", "sequence (P08684 2-503)": "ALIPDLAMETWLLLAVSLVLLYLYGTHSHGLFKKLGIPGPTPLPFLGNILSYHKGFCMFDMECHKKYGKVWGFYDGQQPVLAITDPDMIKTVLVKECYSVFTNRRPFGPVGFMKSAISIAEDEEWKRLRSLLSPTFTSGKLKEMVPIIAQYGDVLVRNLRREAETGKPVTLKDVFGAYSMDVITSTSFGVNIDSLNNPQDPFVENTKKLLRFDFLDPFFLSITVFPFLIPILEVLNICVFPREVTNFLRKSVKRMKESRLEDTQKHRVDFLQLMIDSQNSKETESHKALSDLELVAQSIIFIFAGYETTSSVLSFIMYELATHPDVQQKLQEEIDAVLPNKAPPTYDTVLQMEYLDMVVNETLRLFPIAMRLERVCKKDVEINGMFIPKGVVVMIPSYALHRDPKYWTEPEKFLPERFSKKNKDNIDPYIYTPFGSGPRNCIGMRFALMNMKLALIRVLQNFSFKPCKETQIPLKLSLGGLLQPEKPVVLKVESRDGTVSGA", "experiment": "Kinetics inhibitory assay of quercetin on ziprasidone metabolism in HLM", "type": "in vitro ADME", "conditions": "ziprasidone 2.5–20 μM, quercetin 0, 6.25, 12.5, 25 μM", "values": [{"molecule": "O=c1c(O)c(-c2ccc(O)c(O)c2)oc2cc(O)cc(O)c12", "note": "[quercetin, Quercetin]", "Inhibition type": "mixed inhibitory mechanism; also recorded: mixed inhibition"}]}, {"molecular_target": "human liver microsomes (HLM) (Homo sapiens, UniProt P08684)", "sequence (P08684 2-503)": "as above", "experiment": "Kinetics inhibitory assay of quercetin on ziprasidone metabolism in HLM", "type": "in vitro ADME", "conditions": "not given", "values": [{"molecule": "O=c1c(O)c(-c2ccc(O)c(O)c2)oc2cc(O)cc(O)c12", "note": "[quercetin, Quercetin]", "α": 0.21}]}, {"molecular_target": "human liver microsomes (HLM) (Homo sapiens, UniProt P08684)", "experiment": "Kinetics inhibitory assay of quercetin on ziprasidone metabolism in HLM", "type": "in vitro ADME", "conditions": "Lineweaver-Burk secondary plot", "units": {"αKi": "µM"}, "values": [{"molecule": "O=c1c(O)c(-c2ccc(O)c(O)c2)oc2cc(O)cc(O)c12", "note": "[quercetin, Quercetin]", "αKi": 4.66}]}, {"molecular_target": "CYP3A4.1 (Homo sapiens, UniProt P08684)", "sequence (P08684 whole entry)": "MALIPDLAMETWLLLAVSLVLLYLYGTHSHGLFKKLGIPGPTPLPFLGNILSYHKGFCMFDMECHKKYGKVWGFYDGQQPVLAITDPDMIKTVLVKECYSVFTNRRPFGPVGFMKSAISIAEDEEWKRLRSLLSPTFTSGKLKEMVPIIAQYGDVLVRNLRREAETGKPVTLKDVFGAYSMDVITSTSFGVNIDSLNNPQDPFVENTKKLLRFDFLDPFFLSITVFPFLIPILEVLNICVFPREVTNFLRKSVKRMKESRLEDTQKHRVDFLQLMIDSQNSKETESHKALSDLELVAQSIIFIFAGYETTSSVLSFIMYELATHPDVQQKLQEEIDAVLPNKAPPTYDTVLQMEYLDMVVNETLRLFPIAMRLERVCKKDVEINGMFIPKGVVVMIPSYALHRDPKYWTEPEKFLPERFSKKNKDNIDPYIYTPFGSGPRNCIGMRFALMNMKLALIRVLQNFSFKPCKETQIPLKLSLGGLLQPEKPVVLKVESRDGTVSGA", "experiment": "not given", "conditions": "not given", "units": {"αKi": "µM"}, "values": [{"molecule": "O=c1c(O)c(-c2ccc(O)c(O)c2)oc2cc(O)cc(O)c12", "note": "[quercetin, Quercetin]", "α": 0.66, "αKi": 10.06}]}, {"system": "not given", "experiment": "not given", "design": "method as in Ye et al., 2024", "conditions": "nimodipine coadministration; ref Ye et al., 2024; cited from earlier work", "values": [{"molecule": "CCN1CCN(c2cc(-c3ccc(F)cc3)c3c(n2)CCCCCC3)CC1", "note": "[blonanserin]", "elevation of AUC": "more than 2 fold", "elevation of Cmax": "more than 2 fold"}]}]}
